The record followed here is paper PMC8892849 (ACS Omega, 2022).

One data set can be described thus: In vitro cytotoxic assay. In kind it is cell-based. As to conditions: normal peripheral blood mononuclear cells (PBMCs).
Data set [1] concerns non-small cell lung cancer cells (A-549). The experiment in a line: In vitro cytotoxic assay. The format is cell-based, human.
The subject of data set [2] is hepatocellular carcinoma (HepG-2). The experiment in a line: In vitro cytotoxic assay. The format is cell-based, human.
Another data set concerns the target EGFR^T790M (Homo sapiens, UniProt P00533, T790M). In words: HTRF kinase inhibition assay, EGFR^T790M.
Data set [3] deals with breast adenocarcinoma (MCF-7). In words: In vitro cytotoxic assay. The format is cell-based, human.
In a further data set the test system is p53 ubiquitination. The experiment in a line: In vivo p53 ubiquitination inhibition of MCF-7 cells. As to conditions: Homo sapiens, MCF7, 6 h, read-out: IC50 (mean ± SEM) p53 ubiquitination. In kind it is cell-based.
The test system of data set [4] is prostate carcinoma (PC-3). The experiment in a line: In vitro cytotoxic assay. In kind it is cell-based, human.
The target of another data set is EGFR^WT (Homo sapiens, UniProt P00533). In words: HTRF kinase inhibition assay, EGFR^WT.
Sequence of EGFR^WT (P00533 25-1210): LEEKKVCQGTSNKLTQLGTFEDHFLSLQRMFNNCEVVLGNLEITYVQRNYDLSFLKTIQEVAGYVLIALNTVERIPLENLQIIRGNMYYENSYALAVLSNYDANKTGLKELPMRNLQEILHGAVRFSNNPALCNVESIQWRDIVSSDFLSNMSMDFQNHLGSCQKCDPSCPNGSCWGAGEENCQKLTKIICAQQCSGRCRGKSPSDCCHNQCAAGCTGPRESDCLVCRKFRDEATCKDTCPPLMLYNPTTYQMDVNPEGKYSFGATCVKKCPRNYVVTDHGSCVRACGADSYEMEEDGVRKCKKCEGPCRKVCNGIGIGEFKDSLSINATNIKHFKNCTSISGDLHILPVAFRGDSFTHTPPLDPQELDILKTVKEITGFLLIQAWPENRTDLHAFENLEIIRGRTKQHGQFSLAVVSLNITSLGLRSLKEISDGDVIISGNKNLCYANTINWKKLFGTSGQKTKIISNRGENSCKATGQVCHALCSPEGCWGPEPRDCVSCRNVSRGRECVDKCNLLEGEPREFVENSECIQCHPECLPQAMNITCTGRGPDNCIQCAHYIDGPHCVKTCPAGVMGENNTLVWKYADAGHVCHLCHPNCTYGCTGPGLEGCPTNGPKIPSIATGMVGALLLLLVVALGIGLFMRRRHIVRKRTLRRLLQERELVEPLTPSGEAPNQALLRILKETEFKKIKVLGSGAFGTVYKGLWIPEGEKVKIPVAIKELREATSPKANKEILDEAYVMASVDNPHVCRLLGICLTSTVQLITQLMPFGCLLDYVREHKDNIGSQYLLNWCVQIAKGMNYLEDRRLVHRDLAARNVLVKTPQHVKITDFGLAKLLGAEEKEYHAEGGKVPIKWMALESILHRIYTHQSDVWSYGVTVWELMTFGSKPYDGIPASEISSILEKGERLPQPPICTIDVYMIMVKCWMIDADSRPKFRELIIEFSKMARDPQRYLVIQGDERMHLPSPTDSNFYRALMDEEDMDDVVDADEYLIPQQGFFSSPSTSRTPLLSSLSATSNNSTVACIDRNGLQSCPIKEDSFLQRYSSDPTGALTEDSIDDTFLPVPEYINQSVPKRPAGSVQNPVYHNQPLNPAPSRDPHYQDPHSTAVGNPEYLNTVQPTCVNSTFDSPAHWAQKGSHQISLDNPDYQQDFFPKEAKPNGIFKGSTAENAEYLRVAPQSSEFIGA

Sequence of EGFR^T790M (P00533 25-1210 T790M): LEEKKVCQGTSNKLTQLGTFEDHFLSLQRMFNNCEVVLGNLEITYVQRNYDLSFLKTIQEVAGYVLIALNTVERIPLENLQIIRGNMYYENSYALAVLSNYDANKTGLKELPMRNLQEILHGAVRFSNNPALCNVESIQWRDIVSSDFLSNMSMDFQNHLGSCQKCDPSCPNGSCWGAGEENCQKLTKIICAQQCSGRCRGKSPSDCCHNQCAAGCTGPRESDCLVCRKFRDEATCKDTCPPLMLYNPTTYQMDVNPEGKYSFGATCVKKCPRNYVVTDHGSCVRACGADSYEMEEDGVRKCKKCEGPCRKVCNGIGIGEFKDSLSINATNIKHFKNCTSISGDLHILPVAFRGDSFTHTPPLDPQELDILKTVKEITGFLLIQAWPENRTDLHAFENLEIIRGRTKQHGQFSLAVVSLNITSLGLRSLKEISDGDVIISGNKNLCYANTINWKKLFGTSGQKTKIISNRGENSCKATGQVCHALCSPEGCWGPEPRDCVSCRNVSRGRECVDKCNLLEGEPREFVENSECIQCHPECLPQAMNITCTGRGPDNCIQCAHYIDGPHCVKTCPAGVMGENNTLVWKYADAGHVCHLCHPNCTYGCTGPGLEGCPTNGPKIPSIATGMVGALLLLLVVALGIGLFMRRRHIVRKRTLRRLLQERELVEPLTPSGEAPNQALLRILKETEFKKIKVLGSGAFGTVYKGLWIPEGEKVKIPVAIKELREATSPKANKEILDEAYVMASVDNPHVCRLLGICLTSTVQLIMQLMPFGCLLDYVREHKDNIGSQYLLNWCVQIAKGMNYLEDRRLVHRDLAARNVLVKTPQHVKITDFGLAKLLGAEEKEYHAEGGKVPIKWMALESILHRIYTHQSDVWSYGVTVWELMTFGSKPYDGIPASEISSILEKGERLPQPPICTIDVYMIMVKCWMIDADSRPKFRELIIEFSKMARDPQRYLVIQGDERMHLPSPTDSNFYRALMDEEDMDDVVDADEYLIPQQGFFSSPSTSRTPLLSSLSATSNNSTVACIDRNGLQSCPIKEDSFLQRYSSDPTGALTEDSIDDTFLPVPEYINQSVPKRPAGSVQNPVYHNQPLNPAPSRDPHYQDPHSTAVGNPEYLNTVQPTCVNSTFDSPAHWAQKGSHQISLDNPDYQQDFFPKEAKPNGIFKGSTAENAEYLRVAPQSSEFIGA

The compound `O=[N+]([O-])c1ccc(Nc2nc(Cc3ccccc3)nn2-c2ccccc2)c(Cl)c1` [Compound 6c, 3-Benzyl-N-(2-chloro-4-nitrophenyl)-1-phenyl-1H-1,2,4-triazol-5-amine] yielded an IC50 at 48 h in “In vitro cytotoxic assay” of 188 ± 19.8 µM. Besides, the IC50 in data set [1] (Homo sapiens, A549, 48 h, read-out: IC50 (mean ± SEM) A-549) stood at 5.8 ± 0.05 µM; in data set [2] (Homo sapiens, HepG2, 48 h, read-out: IC50 (mean ± SEM) HepG-2), 7.73 ± 0.04 µM; against EGFR^T790M, 0.13 ± 0.07 µM; in data set [3] (Homo sapiens, MCF7, 48 h, read-out: IC50 (mean ± SEM) MCF-7) it was 2.51 ± 0.06 µM; in the data set with p53 ubiquitination it was 0.00048 ± 2e-05 µM; in data set [4] (Homo sapiens, 48 h, read-out: IC50 (mean ± SEM) PC-3) it was 26.41 ± 0.05 µM. The same compound registered an IC50 against EGFR^WT of 0.15 ± 0.02 µM. Moreover, the “SI (selectivity index) A-549” value in data set [1] (selectivity index, normal PBMC vs A-549) is reported as “SI = 32.35”. Moreover, in data set [2] (selectivity index, normal PBMC vs HepG-2), the “SI (selectivity index) HepG-2” value was “SI = 24.27”. Besides, the “SI (selectivity index) MCF-7” value in data set [3] (selectivity index, normal PBMC vs MCF-7) was “SI = 74.76”. The “SI (selectivity index) PC-3” value in data set [4] (selectivity index, normal PBMC vs PC-3) was “SI = 7.10”.
